In article PMC6325219, “Preclinical Characterization of NVR 3-778, a First-in-Class Capsid Assembly Modulator against Hepatitis B Virus” (Antimicrobial Agents and Chemotherapy, 2018):
Like-named read-outs stand apart in the source and are kept apart here.

Columns and labels:
HepG2.2.15 cells = assay: Cell viability of HepG2.2.15 cells (ATP levels, CellTiter-Glo); type: cell-based; details: NVR 3-778 up to 4 μM and LMV up to 1.5 μM, alone or in combination, 6 days
Procedure: In combination studies, cells were treated with compounds either alone or in combination after combining the compounds in a checkerboard format. In studies examining the effect of human serum, serially diluted NVR 3-778 was added into cell culture medium containing 0% to 40% human serum (BioreclamationIVT). Cells were incubated with the compounds for 3 days, after which the medium was removed, fresh medium containing the compounds was added to the cells, and the cells were incubated for another 3 days prior to harvesting of the supernatants or cells for antiviral assays. To quantify intracellular encapsidated rcDNA or encapsidated pgRNA, cells were first solubilized using lysis buffer containing 1% NP-40 and 10 mM CaCl2. The cytoplasmic fraction was then treated with S7 nuclease (6 units) to remove nonencapsidated nucleic acids, after which the S7 nuclease was inactivated by the addition of EDTA (0.5 M). […] The levels of HBV DNA were determined by a bDNA assay as described above (Affymetrix). Supernatants or cell lysates containing HBV RNA were treated with proteinase K (2.5 µg) at 50°C for 40 min, transferred to a capture plate containing HBV RNA probe sets, and hybridized overnight at 55°C. Captured HBV RNA was measured by the addition of a chemiluminescent substrate using a QuantiGene assay (Affymetrix). […] At day 6, the CellTiter-Glo reagent was added to the cells and viability was determined according to the manufacturer’s protocol (Promega). Luminescence signals were measured at 0.2 s using a Victor X4 multimode plate reader (PerkinElmer).

[1] = system: HBV core protein variant I105V; assay: Transient-transfection antiviral study in HepG2 cells, core variant I105V; type: cell-based, hepatitis B virus; details: for EC50 FC, I105V: ratio of mean EC50 for core variant over wild-type HBV
Procedure: (§1) Cells were cotransfected with the HBV plasmids (100 ng/well) and a Gaussia expression plasmid (10 ng/well) (Thermo Scientific) using the Lipofectamine LTX Plus transfection reagent (Life Technologies). Transfection mixtures were removed after overnight incubation, and cells were treated with serially diluted NVR 3-778 at a final dimethyl sulfoxide (DMSO) concentration of 0.5%. After 3 days of incubation with the compound, the supernatants were collected and secreted Gaussia luciferase was measured using a Gaussia Flash luciferase assay kit (Thermo Scientific). […] Samples were diluted into lysis buffer (Affymetrix) containing 2.5 µg proteinase K (Affymetrix) at 50°C for 40 min. Intracellular encapsidated HBV DNA was denatured for 30 min at 25°C in 0.2 M NaOH (Sigma) and incubated with HBV DNA probes designed to hybridize to the minus-strand HBV DNA (Affymetrix). The denatured DNA was subsequently detected using a QuantiGene assay kit, according to the branched DNA (bDNA) assay recommended by the manufacturer (Affymetrix).

[2] = system: HBV core protein variant I105L; assay: Transient-transfection antiviral study in HepG2 cells, core variant I105L; type: cell-based, hepatitis B virus; details: for EC50 FC, I105L: ratio of mean EC50 for core variant over wild-type HBV
Procedure: as §1

HBV = assay: De novo infection study using PHH; type: cell-based; details: Hepatitis B virus
Procedure: Cryopreserved PHH (Life Technologies) were seeded at 40,000 cells/well 1 day before infection. The HBV inoculum, concentrated from the supernatants of HepG2.2.15 cells, was prepared at 200 genome equivalents/cell in PHH medium (DMEM containing 10% FBS and a supplement cocktail containing HEPES, L-proline, insulin epidermal growth factor, dexamethasone, and ascorbic acid-2-phosphate, as previously described) with 2% DMSO and 4% polyethylene glycol (PEG) 8000 (Sigma). Compounds were serially diluted in DMSO at 50-fold strength and added to PHH medium containing the HBV inoculum, prior to infecting the PHH. After overnight incubation, the infection mixtures were removed and the cells were replenished with PHH medium containing freshly diluted compounds. On day 5 and day 8 postinfection, the media containing the compounds were removed and the cells were replenished with PHH medium containing freshly diluted compounds. Supernatants and cells were harvested for antiviral and viability assays on day 11 postinfection. HBV DNA, HBsAg, and HBeAg were determined from the supernatants of infected PHH using bDNA assays (Affymetrix) and HBsAg or HBeAg chemiluminescence immunoassay kits (Autobio), as recommended by the manufacturers. Intracellular total HBV RNA mRNA and host mRNA levels were monitored by using the QuantiGene assays (Affymetrix) and probe sets that hybridized to the X region, which is common to all HBV transcripts, and the host β-actin mRNA, respectively.

HBV GT B (wild-type HBV) = assay: Transient-transfection antiviral study in HepG2 cells, GT B (wild-type HBV); type: cell-based, hepatitis B virus; details: for EC50: Hepatitis B virus; for EC50 FC, wild type: reference, ratio to wild-type HBV
Procedure: as §1

[3] = 264 h, PHH from three donors, compound added with inoculum, 11 days, read-out: EC50, HBV DNA
[4] = 264 h, PHH from three donors, compound added with inoculum, 11 days, read-out: EC50, HBeAg
[5] = 264 h, PHH from three donors, compound added with inoculum, 11 days, read-out: EC50, HBsAg
[6] = 264 h, PHH from three donors, compound added with inoculum, 11 days, read-out: EC50, intracellular HBV RNA
[7] = 264 h, PHH from three donors, compound added with inoculum, 11 days, read-out: EC90, HBV DNA
[8] = 264 h, PHH from three donors, compound added with inoculum, 11 days, read-out: EC90, HBeAg
[9] = 264 h, PHH from three donors, compound added with inoculum, 11 days, read-out: EC90, HBsAg
[10] = 264 h, PHH from three donors, compound added with inoculum, 11 days, read-out: EC90, intracellular HBV RNA

Compound | Effect on cell viability (HepG2.2.15 cells) | EC50 ([1]; Hepatitis B virus, HepG2, read-out: EC50, core variant I105V) [µM] | EC50 FC, I105V [1] [fold] | EC50 ([2]; Hepatitis B virus, HepG2, read-out: EC50, core variant I105L) [µM] | EC50 FC, I105L [2] [fold] | EC50 (HBV; [3]) [µM] | EC50 (HBV; [4]) [µM] | EC50 (HBV; [5]) [µM] | EC50 (HBV; [6]) [µM] | EC90 (HBV; [7]) [µM] | EC90 (HBV; [8]) [µM] | EC90 (HBV; [9]) [µM] | EC90 (HBV; [10]) [µM] | EC50 (HBV; PHH, de novo infection, range over HBsAg, HBeAg, HBV RNA, read-out: EC50 values against the production of HBV antigens and intracellular HBV RNA) [µM] | EC50 (HBV GT B (wild-type HBV); HepG2, 72 h, read-out: EC50 (mean), HBV GT B) [µM] | EC50 (HBV GT B (wild-type HBV); HepG2, read-out: EC50, wild type HBV) [µM] | EC50 (HBV GT B (wild-type HBV); HepG2, read-out: WT EC50) [µM] | EC50 FC, wild type (HBV GT B (wild-type HBV)) [fold]
O=C(Nc1cc(F)c(F)c(F)c1)c1ccc(F)c(S(=O)(=O)N2CCC(O)CC2)c1 [NVR 3-778] | did not affect cell viability | 0.41 ± 0.11 | 1.8 | 0.34 ± 0.13 | 1.5 | 0.81 ± 0.18 | 4.5 ± 0.82 | 4.8 ± 0.98 | 3.7 ± 0.22 | 5.4 ± 2 | 8.9 ± 1.2 | 10.2 ± 3 | 11.6 ± 2.7 | 3.7 to 4.8 | 0.2 | 0.23 ± 0.11 | 0.31 ± 0.1 | 1
Nc1ccn([C@@H]2CS[C@H](CO)O2)c(=O)n1 [LMV, lamivudine, reference compound] | did not affect cell viability | – | 0.84 | – | 1.3 | 0.016 ± 0.01 | > 30 | > 30 | > 30 | 0.066 ± 0.01 | > 30 | > 30 | > 30 | – | – | – | 0.53 ± 0.12 | 1
